This note sets out measurements from patent US20140134230A1, “TRANSDERMAL THERAPEUTIC SYSTEM” (priority 2005, published 2014).

Molecules are shown by their SMILES.

A short description of data set [1]: Rivastigmine's biopharmaceutical properties in humans. In kind it is in vivo. An excerpt:
Little has been published in detail on rivastigmine's biopharmaceutical properties in humans. […] It is subject to pre-systemic and systemic metabolism.

Data set [2] can be described thus: Saturation solubility of rivastigmine free base in the silicone adhesive. In kind it is physicochemical.

Turning to `CCN(C)C(=O)Oc1cccc([C@H](C)N(C)C)c1` [rivastigmine], in data set [1], the absorption result is “rapidly and completely absorbed”; the metabolism entry was “metabolised mainly through hydrolysis by esterases”. Further, the “saturation solubility in the silicone adhesive” value in data set [2] is on record as “about 5 %-wt”.
